The test system of one series is sheep liver cytosol. The series can be described thus: Sulfonation of 7-hydroxycoumarin derivatives by sheep liver cytosol. The following applies: sheep liver cytosol; value (95 % confidence interval).
Assay in series [1]: as above
The following applies: female, sheep, liver cytosol, pH 7.4.

The subject of another series is pig liver cytosol. Briefly: Sulfonation of 7-hydroxycoumarin derivatives by pig liver cytosol. The note with it: pig liver cytosol; value (95 % confidence interval).
Assay in series [2]: as above
The following applies: female, pig, liver cytosol, pH 7.4.

The subject of series [3] is mouse liver cytosol. Briefly: Sulfonation of 7-hydroxycoumarin derivatives by mouse liver cytosol. The following applies: for sulfonation rate: 10 μM substrate; for Vmax: mouse liver cytosol, value (95 % confidence interval).
Series [4] is described as follows: Sulfonation of 7-hydroxycoumarin derivatives by rat liver cytosol. The following applies: male, Wistar, rat, pH 7.4.
The next series concerns rat liver cytosol. The description is as above. The following applies: rat liver cytosol; for sulfonation efficiency, intrinsic clearance (Vmax/Km): rank among species; for Vmax: value (95 % confidence interval).
The subject of series [5] is dog liver cytosol. The series can be described thus: Sulfonation of 7-hydroxycoumarin derivatives by dog liver cytosol. The following applies: for Vmax: value (95 % confidence interval); for intrinsic clearance (Vmax/Km): rank among species; for intrinsic clearance relative to the highest intrinsic clearance value: dog cytosol, highest value = 1 by rat cytosol.
Assay in series [6]: as above
The note with it: both, Beagle, dog, liver cytosol, pH 7.4.

The next series concerns rabbit liver cytosol. The series can be described thus: Sulfonation of 7-hydroxycoumarin derivatives by rabbit liver cytosol. The following applies: rabbit liver cytosol; for Vmax: value (95 % confidence interval).
Assay in series [7]: as above
The following applies: female, Dutch belted, rabbit, liver cytosol, pH 7.4.

The next series has as its system human liver cytosol. Briefly: Sulfonation of 7-hydroxycoumarin derivatives by human liver cytosol. The following applies: human liver cytosol; value (95 % confidence interval).
Assay in series [8]: as above
The following applies: male, human, liver cytosol, pH 7.4.

The test system of series [9] is mouse liver cytosol. The note with it: pH 7.4.
The test system of series [10] is dog liver cytosol.
The nature of a further series: in vitro. The note with it: male, Wistar, rat, pH 7.4.
Series [11] is described as follows: Sulfonation of 7-hydroxycoumarin derivatives by mouse liver cytosol. The note with it: DBA/2N/Kuo, mouse, pH 7.4.
Series [12] relates to liver cytosol of human, rat, mouse, rabbit, dog, pig and sheep. It is filed as in vitro ADME. The following applies: for sulfonation rate: 10 μM substrate, compared among derivatives over all species.

Molecules are shown by their SMILES. “Also recorded” adds a separate entry of the source. Where two headings read alike, the source gives them in different places.

In general, Km refers to the substrate concentration at which the rate is half of its maximum. For `O=c1ccc2ccc(O)cc2o1` [compound 1, 7-hydroxycoumarin, reference compound], the Vmax is 250 (200–310) nmol/(min * g protein) with sheep liver cytosol; 65 (29–100) nmol/(min * g protein) with pig liver cytosol; 260 (210–320) nmol/(min * g protein) in the series with mouse liver cytosol [3]; 410 (360–460) nmol/(min * g protein) with rat liver cytosol; 380 (330–440) nmol/(min * g protein) with dog liver cytosol [5] (dog liver cytosol); 200 (100–310) nmol/(min * g protein) in the series with rabbit liver cytosol. For the same compound, the Vmax with human liver cytosol is on record as 84 (26–140) nmol/(min * g protein). Besides, the Km in series [1] is 410 nM; in series [2], 4300 nM; in series [4] (liver cytosol) it was 180 nM; in [6], 270 nM; in series [7] it was 1700 nM; in series [8], 1900 nM. The sulfonation rate result in the series on mouse liver cytosol [3] (female mouse liver cytosol) and in the series with mouse liver cytosol [3] (male mouse liver cytosol) was “Slow” throughout. In addition, in the series on rat liver cytosol, the “sulfonation efficiency, intrinsic clearance (Vmax/Km)” value (“sulfonation efficiency” below) is given as “efficiently; also recorded: highest intrinsic clearance”.
Regarding `COc1cc2ccc(=O)oc2cc1O` [compound 3, 6-methoxy-7-hydroxycoumarin], the Vmax with sheep liver cytosol is listed as 260 (240–290) nmol/(min * g protein); in the series on pig liver cytosol, 15 (10–20) nmol/(min * g protein); in the series with mouse liver cytosol [3], “No MM”; in the series with rat liver cytosol, 540 (510–570) nmol/(min * g protein); in the series with dog liver cytosol [5] (dog liver cytosol) it was 420 (390–450) nmol/(min * g protein); in the series with rabbit liver cytosol, 160 (110–220) nmol/(min * g protein). Also, in the series with human liver cytosol, the Vmax is reported as 155 (6–300) nmol/(min * g protein). For the same compound, the Km in [1] was 130 nM; in the series with mouse liver cytosol [9] it was “no MM”; in series [2] it was 110 nM; in series [6], 220 nM; in [7], 990 nM; in the series “in vitro”, 650 nM. Besides, the Km in [8] was found to be 3500 nM. Besides, the “intrinsic clearance (Vmax/Km)” value with dog liver cytosol [10] is “highest”.
Consider `CCc1c(C)c2ccc(O)cc2oc1=O` [compound 5, 3-ethyl-4-methyl-7-hydroxycoumarin], for which the Vmax with sheep liver cytosol is recorded as 340 (220–460) nmol/(min * g protein); in the series with pig liver cytosol, 26 (12–40) nmol/(min * g protein); with mouse liver cytosol [3] it was 5.3 (3.8–6.8) nmol/(min * g protein); in the series on rat liver cytosol, “No MM”; in the series on dog liver cytosol [5] (dog liver cytosol), 360 (260–460) nmol/(min * g protein); in the series with rabbit liver cytosol it was 58 (21–95) nmol/(min * g protein). In the series on human liver cytosol, the Vmax is given as 97 (76–120) nmol/(min * g protein). The Km in series [1] came out at 1600 nM; in series [2] it was 1500 nM; in series [11] (liver cytosol), 110 nM; in [6], 450 nM; in [7], 1300 nM; in series [8] it was 2100 nM. Besides, the sulfonation rate entry with mouse liver cytosol [3] (male mouse liver cytosol) is reported as “Slow”. Further, in the series on dog liver cytosol [5] (dog liver cytosol), the “intrinsic clearance (Vmax/Km)” value is reported as “highest”.
For `CCc1c(C)c2ccc(O)c(C)c2oc1=O` [compound 6, 3-ethyl-4,8-dimethyl-7-hydroxycoumarin], the Vmax in the series on sheep liver cytosol is on record as 280 (190–370) nmol/(min * g protein); with pig liver cytosol, 46 (22–69) nmol/(min * g protein); in the series with mouse liver cytosol [3] it was 14 (11–17) nmol/(min * g protein); with rat liver cytosol it was 130 (73–180) nmol/(min * g protein); in the series on dog liver cytosol [5] (dog liver cytosol), 630 (280–980) nmol/(min * g protein); with rabbit liver cytosol it was 280 (200–350) nmol/(min * g protein). The Vmax with human liver cytosol is on record as 99 (74–130) nmol/(min * g protein). In addition, the Km in [1] is 480 nM; in [2] it was 1800 nM; in [11] (liver cytosol) it was 140 nM; in series [4] (liver cytosol) it was 990 nM; in [6], 380 nM; in series [7], 1700 nM. In addition, in [8], the Km is 510 nM. Besides, the “intrinsic clearance relative to the highest intrinsic clearance value” with dog liver cytosol [5] was > 70%. In the series on dog liver cytosol [5] (dog liver cytosol, 10 μM substrate), the sulfonation rate entry was “Slow”. Besides, the “intrinsic clearance (Vmax/Km)” value in the series on dog liver cytosol [5] (dog liver cytosol) is recorded as “highest”.
Take `Cc1c(C)c2ccc(O)c(C)c2oc1=O` [compound 7, 3,4,8-trimethyl-7-hydroxycoumarin]: the Vmax with sheep liver cytosol was 300 (250–350) nmol/(min * g protein); in the series on pig liver cytosol, 59 (28–91) nmol/(min * g protein); in the series on mouse liver cytosol [3] it was 11 (6.8–14) nmol/(min * g protein); in the series with rat liver cytosol it was 440 (170–710) nmol/(min * g protein); with dog liver cytosol [5] (dog liver cytosol) it was 1300 (0–5200) nmol/(min * g protein); in the series on rabbit liver cytosol, “No MM”. Moreover, the Vmax with human liver cytosol is on record as 65 (54–76) nmol/(min * g protein). Besides, the Km in series [1] came to 710 nM; in series [2], 2100 nM; in series [11] (liver cytosol), 110 nM; in [4] (liver cytosol), 800 nM; in series [6] it was 4300 nM; in series [8] it was 650 nM. Besides, the sulfonation rate result in the series with mouse liver cytosol [3] (male mouse liver cytosol) is “Slow”. Besides, the “sulfonation efficiency” value in the series with rat liver cytosol is “efficiently”.
Regarding `Cc1ccc(-c2cc3ccc(O)cc3oc2=O)cc1` [compound 8, 3-(4-methylphenyl)-7-hydroxycoumarin], the Vmax is 154 (83–230) nmol/(min * g protein) with sheep liver cytosol; 12 (2–22) nmol/(min * g protein) in the series on pig liver cytosol; 26 (16–36) nmol/(min * g protein) in the series with mouse liver cytosol [3]; 170 (92–260) nmol/(min * g protein) in the series on rat liver cytosol; 56 (38–77) nmol/(min * g protein) in the series with dog liver cytosol [5] (dog liver cytosol); 310 (35–580) nmol/(min * g protein) in the series with rabbit liver cytosol. Moreover, in the series on human liver cytosol, the Vmax is given as 6.5 (1.6–36) nmol/(min * g protein). Further, the Km in series [1] was 5300 nM; in series [2] it was 2800 nM; in series [4], 360 nM; in series [6], 170 nM; in series [7], 7300 nM; in [8] it was 270 nM. Besides, the figures for the sulfonation rate entry (in series [12]; in the series with rabbit liver cytosol (10 μM substrate)) were “highest sulfonation rates” and “Slow”, respectively. Besides, the “sulfonation efficiency” value with rat liver cytosol is “efficiently”.
With `O=c1oc2cc(O)ccc2cc1-c1ccc(O)cc1` [compound 9, 3-(4-hydroxyphenyl)-7-hydroxycoumarin], the Vmax in the series on sheep liver cytosol is 41 (26–56) nmol/(min * g protein); with mouse liver cytosol [3], 160 (130–190) nmol/(min * g protein); with dog liver cytosol [5] (dog liver cytosol) it was 88 (65–120) nmol/(min * g protein); in the series with rabbit liver cytosol, 45 (30–62) nmol/(min * g protein). The Km in series [1] was 1270 nM; in series [11] it was 460 nM; in [6], 51 nM; in series [7], 950 nM. Moreover, the sulfonation rate result in the series with rat liver cytosol (10 μM substrate) is given as “Slow”. Besides, in the series with dog liver cytosol [5], the “intrinsic clearance relative to the highest intrinsic clearance value” is recorded as > 70%. Further, the “intrinsic clearance (Vmax/Km)” value in the series on dog liver cytosol [5] (dog liver cytosol) is recorded as “highest”.
Consider `CN(C)c1ccc(-c2cc3ccc(O)cc3oc2=O)cc1` [compound 12, 3-(4-dimethylaminophenyl)-7-hydroxycoumarin], for which the Vmax is 440 (360–570) nmol/(min * g protein) with sheep liver cytosol; 210 (140–290) nmol/(min * g protein) in the series on pig liver cytosol; 230 (64–540) nmol/(min * g protein) in the series on mouse liver cytosol [3]; 520 (280–790) nmol/(min * g protein) with rat liver cytosol; 600 (330–970) nmol/(min * g protein) in the series on dog liver cytosol [5] (dog liver cytosol); 290 (90–560) nmol/(min * g protein) in the series with rabbit liver cytosol. Also, in the series on human liver cytosol, the Vmax is 180 (75–320) nmol/(min * g protein). For the same compound, the Km in series [1] came to 890 nM; in series [2] it was 2800 nM; in series [11], 490 nM; in series [4], 670 nM; in [6] it was 440 nM; in series [7] it was 670 nM. Moreover, in series [8], the Km came to 390 nM. In addition, the sulfonation rate result in series [12] is “highest sulfonation rates”. The “intrinsic clearance (Vmax/Km), similarity between species” value in series [12] (compared with other 7-hydroxycoumarin derivatives) is listed as “more similar between species”. The “intrinsic clearance (Vmax/Km)” value in the series on dog liver cytosol [5] (dog liver cytosol) was “highest”.

(Values after PMC7646200 (Xenobiotica; the fate of foreign compounds in biological …, 2020).)
